Measurements: ChEMBL document CHEMBL4507279, “Data for DCP probe BI-9627” (2021)
The source made the active and inactive calls. The calls are words filed in the database; no cut-off is given here.

How the values were obtained:
[1] = target: Sigma non-opioid intracellular receptor 1 (Homo sapiens) (UniProt Q99720); conditions: Compound concentration 10.0 uM
[2] = target: D(1A) dopamine receptor (Homo sapiens) (UniProt P21728); conditions: Compound concentration 10.0 uM
[3] = target: D(3) dopamine receptor (Homo sapiens) (UniProt P35462); conditions: Compound concentration 10.0 uM
D(3) dopamine receptor (Homo sapiens), sequence (P35462 whole entry): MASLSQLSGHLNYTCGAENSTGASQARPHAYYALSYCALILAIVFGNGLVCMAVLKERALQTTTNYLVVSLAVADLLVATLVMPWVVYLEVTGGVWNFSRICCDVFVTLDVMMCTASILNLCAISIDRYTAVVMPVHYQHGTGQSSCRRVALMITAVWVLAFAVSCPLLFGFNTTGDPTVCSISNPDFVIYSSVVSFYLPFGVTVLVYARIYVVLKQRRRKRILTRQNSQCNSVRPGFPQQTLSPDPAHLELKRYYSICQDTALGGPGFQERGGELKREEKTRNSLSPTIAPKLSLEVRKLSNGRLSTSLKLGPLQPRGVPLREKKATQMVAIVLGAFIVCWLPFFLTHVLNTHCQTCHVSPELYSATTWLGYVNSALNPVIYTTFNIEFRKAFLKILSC

[4] = tested on: Proto-oncogene tyrosine-protein kinase receptor Ret (Homo sapiens), P07949 [M918T]; conditions: Compound concentration 1000.0 nM
Proto-oncogene tyrosine-protein kinase receptor Ret (Homo sapiens), P07949 [M918T], sequence (P07949 whole entry M918T): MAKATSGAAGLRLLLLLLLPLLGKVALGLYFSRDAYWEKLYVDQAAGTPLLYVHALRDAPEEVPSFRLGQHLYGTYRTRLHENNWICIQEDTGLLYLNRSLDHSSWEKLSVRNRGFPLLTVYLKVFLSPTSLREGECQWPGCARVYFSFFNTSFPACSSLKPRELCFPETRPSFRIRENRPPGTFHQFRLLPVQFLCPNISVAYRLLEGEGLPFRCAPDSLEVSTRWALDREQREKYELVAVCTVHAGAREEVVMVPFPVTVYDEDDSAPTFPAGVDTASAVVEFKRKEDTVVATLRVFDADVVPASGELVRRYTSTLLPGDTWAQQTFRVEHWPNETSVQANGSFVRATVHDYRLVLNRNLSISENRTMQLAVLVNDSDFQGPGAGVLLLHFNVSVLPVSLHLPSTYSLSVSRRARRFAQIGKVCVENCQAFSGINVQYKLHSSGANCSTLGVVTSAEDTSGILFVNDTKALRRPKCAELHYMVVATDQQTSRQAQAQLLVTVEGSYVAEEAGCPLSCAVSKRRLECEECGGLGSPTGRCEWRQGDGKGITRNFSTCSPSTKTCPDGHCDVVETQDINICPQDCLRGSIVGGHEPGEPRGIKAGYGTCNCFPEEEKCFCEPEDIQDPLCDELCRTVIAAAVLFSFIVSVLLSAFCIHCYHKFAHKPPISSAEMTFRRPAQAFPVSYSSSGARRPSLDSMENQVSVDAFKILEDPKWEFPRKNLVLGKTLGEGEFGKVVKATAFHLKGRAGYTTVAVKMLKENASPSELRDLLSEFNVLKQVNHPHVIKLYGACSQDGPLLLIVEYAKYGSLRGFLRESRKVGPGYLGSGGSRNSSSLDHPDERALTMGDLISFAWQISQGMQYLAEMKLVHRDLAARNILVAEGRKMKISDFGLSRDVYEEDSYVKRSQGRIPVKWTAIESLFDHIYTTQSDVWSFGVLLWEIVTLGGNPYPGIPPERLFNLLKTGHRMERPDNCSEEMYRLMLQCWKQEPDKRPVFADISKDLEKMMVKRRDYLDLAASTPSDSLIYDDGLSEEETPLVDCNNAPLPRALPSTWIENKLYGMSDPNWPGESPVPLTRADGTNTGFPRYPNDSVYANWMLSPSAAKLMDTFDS

[5] = target: Mitogen-activated protein kinase 11 (Homo sapiens) (UniProt Q15759); conditions: Compound concentration 1000.0 nM
[6] = target: Sodium/hydrogen exchanger 1 (Homo sapiens, UniProt P19634); test: pHi change assay with SLC9A1
[7] = target: D(2) dopamine receptor (Homo sapiens) (UniProt P14416); conditions: Compound concentration 10.0 uM
[8] = target: Pyroglutamylated RF-amide peptide receptor (Homo sapiens) (UniProt Q96P65); test: GPR103 Eurofins-Panlabs selectivity data (BI); conditions: Compound concentration 10.0 uM
[9] = target: Sodium-dependent dopamine transporter (Homo sapiens, UniProt Q01959); test: DATRANS/H Eurofins-Panlabs selectivity data (BI); conditions: Compound concentration 10.0 uM
[10] = Rat platelet swelling inhibition (rPSA) assay
[11] = target: Beta-2 adrenergic receptor (Homo sapiens) (UniProt P07550); conditions: Compound concentration 10.0 uM
[12] = target: ATP-sensitive inward rectifier potassium channel 1 isoform X1 (Mesocricetus auratus) (UniProt A0A1U8CU73); conditions: Compound concentration 10.0 uM
[13] = target: P2X purinoceptor (Oryctolagus cuniculus) (UniProt G1U3D6); test: P2X/RB Eurofins-Panlabs selectivity data (BI); conditions: Compound concentration 10.0 uM
[14] = target: Gamma-aminobutyric acid type B receptor subunit 1 (Homo sapiens) (UniProt Q9UBS5); test: GABA_B1A Eurofins-Panlabs selectivity data (BI); conditions: Compound concentration 10.0 uM
Gamma-aminobutyric acid type B receptor subunit 1 (Homo sapiens), sequence (Q9UBS5 whole entry): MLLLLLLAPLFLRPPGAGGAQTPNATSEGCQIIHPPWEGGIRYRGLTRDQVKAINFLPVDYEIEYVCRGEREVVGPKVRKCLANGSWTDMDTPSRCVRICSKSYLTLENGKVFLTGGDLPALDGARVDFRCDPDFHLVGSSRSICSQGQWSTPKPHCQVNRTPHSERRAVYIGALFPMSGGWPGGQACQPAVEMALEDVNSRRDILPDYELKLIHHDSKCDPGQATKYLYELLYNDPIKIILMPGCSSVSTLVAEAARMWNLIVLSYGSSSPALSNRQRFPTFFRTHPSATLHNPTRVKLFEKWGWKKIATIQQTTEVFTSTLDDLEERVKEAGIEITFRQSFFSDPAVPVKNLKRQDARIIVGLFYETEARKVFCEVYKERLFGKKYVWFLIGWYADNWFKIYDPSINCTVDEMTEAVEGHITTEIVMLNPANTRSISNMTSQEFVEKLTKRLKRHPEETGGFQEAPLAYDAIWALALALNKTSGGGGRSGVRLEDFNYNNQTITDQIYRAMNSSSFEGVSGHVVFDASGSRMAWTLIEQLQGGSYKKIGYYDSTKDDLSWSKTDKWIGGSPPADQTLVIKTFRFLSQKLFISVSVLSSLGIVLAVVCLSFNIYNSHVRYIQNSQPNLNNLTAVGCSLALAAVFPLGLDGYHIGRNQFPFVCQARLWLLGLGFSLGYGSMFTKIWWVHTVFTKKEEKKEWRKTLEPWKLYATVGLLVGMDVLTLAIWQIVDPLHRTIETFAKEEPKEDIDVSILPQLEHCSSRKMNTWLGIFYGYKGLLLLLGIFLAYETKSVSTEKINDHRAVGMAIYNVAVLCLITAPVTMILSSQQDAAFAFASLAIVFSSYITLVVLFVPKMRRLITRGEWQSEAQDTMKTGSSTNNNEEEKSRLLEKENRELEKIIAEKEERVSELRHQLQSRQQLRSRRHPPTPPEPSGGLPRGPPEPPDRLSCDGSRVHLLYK

[15] = target: Sigma intracellular receptor 2 (Homo sapiens) (UniProt Q5BJF2); test: SIGMA2/R Eurofins-Panlabs selectivity data (BI); conditions: Rattus norvegicus; Compound concentration 10.0 uM
[16] = target: D(3) dopamine receptor (Homo sapiens) (UniProt P35462); test: D3/HU Eurofins-Panlabs selectivity data (BI); conditions: Compound concentration 10.0 uM
[17] = target: Alpha-1B adrenergic receptor (Homo sapiens) (UniProt P35368); test: ALPHA1B/R Eurofins-Panlabs selectivity data (BI); conditions: Rattus norvegicus; Compound concentration 10.0 uM
[18] = target: B2 bradykinin receptor (Homo sapiens) (UniProt P30411); test: B2/HU Eurofins-Panlabs selectivity data (BI); conditions: Compound concentration 10.0 uM
B2 bradykinin receptor (Homo sapiens), sequence (P30411 whole entry): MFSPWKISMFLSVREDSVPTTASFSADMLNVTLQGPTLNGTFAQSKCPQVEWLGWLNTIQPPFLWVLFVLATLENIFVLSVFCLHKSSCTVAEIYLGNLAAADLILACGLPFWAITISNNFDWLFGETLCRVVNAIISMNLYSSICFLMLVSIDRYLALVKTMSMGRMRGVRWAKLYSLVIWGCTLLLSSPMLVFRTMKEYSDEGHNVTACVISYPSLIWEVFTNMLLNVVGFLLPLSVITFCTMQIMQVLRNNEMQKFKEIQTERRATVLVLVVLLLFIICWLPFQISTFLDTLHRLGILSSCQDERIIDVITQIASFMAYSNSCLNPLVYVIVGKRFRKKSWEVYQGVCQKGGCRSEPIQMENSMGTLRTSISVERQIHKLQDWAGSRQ

[19] = target: Thyroid hormone receptor alpha (Rattus norvegicus) (UniProt P63059); test: THYROID HORM Eurofins-Panlabs selectivity data (BI); conditions: Compound concentration 10.0 uM
[20] = target: Delta-type opioid receptor (Homo sapiens) (UniProt P41143); test: DELTA/HU Eurofins-Panlabs selectivity data (BI); conditions: Compound concentration 10.0 uM
[21] = target: Sodium channel alpha subunit (site 2) (Homo sapiens, UniProt P35498+P35499+Q01118+Q14524+Q15858+Q99250+Q9NY46+Q9UI33+Q9UQD0+Q9Y5Y9); test: NA+/SITE2ATG Eurofins-Panlabs selectivity data (BI); type: protein assay, Cavia porcellus; parameters: mode of action antagonist; conditions: guinea pig; compound concentration 30 uM; read-out: % Ctrl
[22] = target: Voltage-dependent N-type calcium channel subunit alpha-1B (Rattus norvegicus) (UniProt Q02294); test: CA+/N/RA Eurofins-Panlabs selectivity data (BI); conditions: Compound concentration 10.0 uM
[23] = target: Beta-1 adrenergic receptor (Homo sapiens) (UniProt P08588); test: BETA1/HU Eurofins-Panlabs selectivity data (BI); conditions: Compound concentration 10.0 uM
Beta-1 adrenergic receptor (Homo sapiens), sequence (P08588 whole entry, looked up): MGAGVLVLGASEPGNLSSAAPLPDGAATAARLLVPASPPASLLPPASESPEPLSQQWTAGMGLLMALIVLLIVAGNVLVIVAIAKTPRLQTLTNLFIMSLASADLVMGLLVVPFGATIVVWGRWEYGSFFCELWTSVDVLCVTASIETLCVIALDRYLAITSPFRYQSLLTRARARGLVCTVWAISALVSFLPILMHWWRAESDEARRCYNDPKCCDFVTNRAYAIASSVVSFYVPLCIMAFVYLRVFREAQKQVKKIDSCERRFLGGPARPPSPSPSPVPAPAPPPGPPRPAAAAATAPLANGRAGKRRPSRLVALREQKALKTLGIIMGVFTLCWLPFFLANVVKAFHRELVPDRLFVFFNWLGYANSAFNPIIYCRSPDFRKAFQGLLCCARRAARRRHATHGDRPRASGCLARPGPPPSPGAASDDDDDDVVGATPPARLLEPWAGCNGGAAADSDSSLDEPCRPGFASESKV

[24] = target: B1 bradykinin receptor (Homo sapiens) (UniProt P46663); test: B1/H Eurofins-Panlabs selectivity data (BI); conditions: Compound concentration 10.0 uM
B1 bradykinin receptor (Homo sapiens), sequence (P46663 whole entry): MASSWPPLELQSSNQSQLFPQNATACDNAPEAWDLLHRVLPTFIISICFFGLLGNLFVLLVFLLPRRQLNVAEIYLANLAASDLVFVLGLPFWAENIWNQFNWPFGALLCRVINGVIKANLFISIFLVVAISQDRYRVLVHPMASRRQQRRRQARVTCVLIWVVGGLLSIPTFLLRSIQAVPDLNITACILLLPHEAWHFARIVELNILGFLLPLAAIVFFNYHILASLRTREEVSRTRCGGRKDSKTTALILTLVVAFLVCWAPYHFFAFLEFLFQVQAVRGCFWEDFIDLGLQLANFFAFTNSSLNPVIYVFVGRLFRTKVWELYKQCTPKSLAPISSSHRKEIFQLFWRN

[25] = target: T1, Alpha-1D adrenergic receptor (Homo sapiens) (UniProt P25100); test: ALPHA1D/H Eurofins-Panlabs selectivity data (BI); conditions: Compound concentration 10.0 uM
T1 sequence (whole entry): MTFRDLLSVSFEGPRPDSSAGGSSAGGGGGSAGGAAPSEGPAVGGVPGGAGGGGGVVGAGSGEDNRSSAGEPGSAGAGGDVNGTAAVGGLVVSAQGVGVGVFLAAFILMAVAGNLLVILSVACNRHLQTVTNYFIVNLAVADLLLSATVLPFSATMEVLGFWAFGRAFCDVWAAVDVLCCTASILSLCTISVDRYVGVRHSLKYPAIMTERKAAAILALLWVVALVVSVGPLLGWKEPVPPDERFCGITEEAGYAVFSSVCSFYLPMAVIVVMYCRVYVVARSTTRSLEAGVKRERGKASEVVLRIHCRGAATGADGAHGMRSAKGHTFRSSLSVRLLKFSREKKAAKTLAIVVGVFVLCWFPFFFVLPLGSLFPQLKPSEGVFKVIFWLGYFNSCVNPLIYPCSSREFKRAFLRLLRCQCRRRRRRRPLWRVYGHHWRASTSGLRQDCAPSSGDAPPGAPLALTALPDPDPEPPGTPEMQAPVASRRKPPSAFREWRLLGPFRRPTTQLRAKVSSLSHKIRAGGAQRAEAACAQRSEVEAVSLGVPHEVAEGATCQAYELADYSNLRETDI

[26] = target: Sigma non-opioid intracellular receptor 1 (Homo sapiens) (UniProt Q99720); test: SIGMA1/HU Eurofins-Panlabs selectivity data (BI); conditions: Compound concentration 10.0 uM
[27] = target: Glucocorticoid receptor (Homo sapiens) (UniProt P04150); test: GLUCOCORTICO Eurofins-Panlabs selectivity data (BI); conditions: Compound concentration 10.0 uM
[28] = target: Histamine H3 receptor (Homo sapiens) (UniProt Q9Y5N1); conditions: Compound concentration 10.0 uM
[29] = target: Glutamate receptor ionotropic, kainate 1 (Rattus norvegicus) (UniProt P22756); conditions: Compound concentration 10.0 uM
[30] = target: Adenosine receptor A1 (Homo sapiens) (UniProt P30542); test: A1/HU Eurofins-Panlabs selectivity data (BI); conditions: Compound concentration 10.0 uM
[31] = target: Nicotinic acetylcholine receptor alpha-1/beta-1 (Homo sapiens) (UniProt P02708+P11230); test: NACH_BS_N/H Eurofins-Panlabs selectivity data (BI); type: protein-complex assay; conditions: Compound concentration 10.0 uM
[32] = target: Estrogen receptor (Homo sapiens) (UniProt P03372); test: ERALPHA/H Eurofins-Panlabs selectivity data (BI); conditions: Compound concentration 10.0 uM
[33] = target: Neuropeptide Y receptor type 2 (Homo sapiens) (UniProt P49146); test: Y2/HU Eurofins-Panlabs selectivity data (BI); conditions: Compound concentration 10.0 uM
[34] = target: Melatonin receptor type 1A (Homo sapiens) (UniProt P48039); conditions: Compound concentration 10.0 uM
Melatonin receptor type 1A (Homo sapiens), sequence (P48039 whole entry): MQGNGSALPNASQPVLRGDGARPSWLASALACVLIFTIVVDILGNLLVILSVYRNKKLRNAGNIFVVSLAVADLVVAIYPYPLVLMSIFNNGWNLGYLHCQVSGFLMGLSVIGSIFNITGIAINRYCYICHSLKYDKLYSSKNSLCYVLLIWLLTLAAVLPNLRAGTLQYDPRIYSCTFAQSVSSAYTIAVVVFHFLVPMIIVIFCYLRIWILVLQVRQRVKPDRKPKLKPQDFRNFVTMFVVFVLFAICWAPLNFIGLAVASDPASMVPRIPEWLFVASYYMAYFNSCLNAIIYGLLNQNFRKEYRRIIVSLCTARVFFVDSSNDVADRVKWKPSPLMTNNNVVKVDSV

[35] = target: Muscarinic acetylcholine receptor M3 (Homo sapiens) (UniProt P20309); conditions: Compound concentration 10.0 uM
Muscarinic acetylcholine receptor M3 (Homo sapiens), sequence (P20309 whole entry, looked up): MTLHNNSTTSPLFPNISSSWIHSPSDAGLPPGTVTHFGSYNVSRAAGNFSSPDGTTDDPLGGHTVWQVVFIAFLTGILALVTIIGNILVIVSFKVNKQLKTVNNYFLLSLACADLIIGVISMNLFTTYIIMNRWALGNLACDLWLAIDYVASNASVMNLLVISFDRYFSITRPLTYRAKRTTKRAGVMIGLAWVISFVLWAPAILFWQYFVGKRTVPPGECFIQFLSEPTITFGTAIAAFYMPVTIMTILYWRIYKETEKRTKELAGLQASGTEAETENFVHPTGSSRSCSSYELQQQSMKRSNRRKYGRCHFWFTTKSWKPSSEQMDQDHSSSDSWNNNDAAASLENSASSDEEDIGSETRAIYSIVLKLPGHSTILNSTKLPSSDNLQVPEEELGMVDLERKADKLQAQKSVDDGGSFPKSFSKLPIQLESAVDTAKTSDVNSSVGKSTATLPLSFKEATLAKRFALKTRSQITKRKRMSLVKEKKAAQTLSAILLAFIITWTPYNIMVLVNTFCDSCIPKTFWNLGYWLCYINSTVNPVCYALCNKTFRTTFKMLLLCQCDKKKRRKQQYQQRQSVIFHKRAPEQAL

[36] = target: 5-hydroxytryptamine receptor 5A (Homo sapiens) (UniProt P47898); conditions: Compound concentration 10.0 uM
[37] = target: Muscarinic acetylcholine receptor M3 (Homo sapiens) (UniProt P20309); test: M3/HU Eurofins-Panlabs selectivity data (BI); conditions: Compound concentration 10.0 uM

Sigma non-opioid intracellular receptor 1 (Homo sapiens), sequence (Q99720 whole entry): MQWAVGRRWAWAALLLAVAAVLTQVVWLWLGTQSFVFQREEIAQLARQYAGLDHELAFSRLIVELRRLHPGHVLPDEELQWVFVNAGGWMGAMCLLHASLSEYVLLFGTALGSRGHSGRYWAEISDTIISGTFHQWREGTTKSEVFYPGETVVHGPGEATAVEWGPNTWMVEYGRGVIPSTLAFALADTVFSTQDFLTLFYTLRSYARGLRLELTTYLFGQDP

**Q.** With `CC(=O)N1CCC(c2ccc(C(=O)NC3=NCCN3)cc2C(F)(F)F)CC1` [BI 0054] as the compound, how does the inhibition [1] read?
**A.** -8.45%

**Q.** What about the inhibition [2] of the same compound?
**A.** 4.8%

**Q.** What about the inhibition [3] of the same compound?
**A.** -7.75%

**Q.** And the residual activity [4]?
**A.** 90%

**Q.** And the residual activity [5]?
**A.** 98%

**Q.** What about the IC50 [6] of the same compound?
**A.** > 10 µM (not active)

**Q.** What about the inhibition [7] of the same compound?
**A.** -4.57%

**Q.** Which results are given for `CC(=O)N1CCC(c2ccc(C(=O)NC(=N)N)cc2C(F)(F)F)CC1` [BI 9627]?
**A.** residual activity [8]: 92%; residual activity [9]: 101%; IC50 [10]: 0.138 µM (active); inhibition [11]: -9.75%; residual activity [12]: 96%; residual activity [13]: 98%; residual activity [14]: 103%; residual activity [15]: 90%; residual activity [16]: 117%; residual activity [17]: 95%; residual activity [18]: 105%; residual activity [19]: 93%; residual activity [20]: 113%; activity at 30 µM [21]: 100% (not active); residual activity [22]: 98%; residual activity [23]: 102%; residual activity [24]: 97%; residual activity [25]: 98%; residual activity [26]: 114%; residual activity [27]: 98%; inhibition [28]: -6.54%; residual activity [29]: 96%; residual activity [30]: 58%; residual activity [31]: 100%; residual activity [32]: 106%; residual activity [33]: 103%; residual activity [34]: 96%; inhibition [35]: 12.1%; inhibition [36]: -4.89%; residual activity [37]: 79%
